Here are results for one molecule from patent US20220152019A1, “COMPOUNDS, COMPOSITIONS, AND METHODS FOR TREATING INFLAMMATORY OR IMMUNE-MEDIATED CONDITIONS OF SURFACE TISSUES” (Landos Biopharma, Inc., priority 2020, published 2022).

Assay [1] concerns cervical lymph node CD3+CD4+ T cells. Put plainly: Flow cytometry of cervical lymph node cells from the MC903-induced atopic dermatitis model. The settings on record: cervical lymph nodes, BT-11 cream 2% vs placebo cream. Type of assay: in vivo, mice. On the procedure:
MC903-induced model. MC903 (2 nM in 20 uL ethanol) was applied to the dorsal ear skin three times per week for nine applications. BT-11 topical cream (2%) (Formula F3 is Table 2) was applied to the ear daily. Mice were scored for erythema, scaling and skin thickness, summarized into a composite disease activity index score through day 19. Analysis. Cervical lymph nodes were excised and crushed by microscope slides. Red blood cells were hypotonically lysed from the resultant suspension. Samples were filtered, washed and centrifuged prior to staining. Production of IFNγ, IL-5, and IL-4 were quantified from CD3+CD4+ T cells by flow cytometry.

Assay [2] has as its system MC903-induced atopic dermatitis in mice. Put plainly: MC903-induced model of atopic dermatitis, topical cream, disease activity index scoring. Type of assay: in vivo. The settings on record: BT-11 topical cream 2% (Formula F3) daily to the ear, vs placebo cream. On the procedure:
MC903-induced model. MC903 (2 nM in 20 uL ethanol) was applied to the dorsal ear skin three times per week for nine applications. BT-11 topical cream (2%) (Formula F3 is Table 2) was applied to the ear daily. Mice were scored for erythema, scaling and skin thickness, summarized into a composite disease activity index score through day 19.

In assay [3] the test system is Imiquimod (IMQ)-induced psoriasis in C57BL/6 mice. Put plainly: Imiquimod (IMQ)-induced model of psoriasis, topical treatment, PASI scoring. Type of assay: in vivo. Conditions: BT-11 dihydrochloride salt 200 μg in DMSO, vs DMSO control, day 7. On the procedure:
(§1) Imiquimod (IMQ)-induced model. C57BL/6 mice were anesthetized, shaved, and briefly exposed to depilatory cream on the surface of the back. Mice were given three days to recover from the procedure prior to entry to the study. After 3 days, mice were challenged with approximately 60 mg of […] imiquimod cream daily by spreading cream over the shaved area. Treatment with BT-11 dihydrochloride salt (200 μg) in dimethyl sulfoxide (DMSO) or a DMSO control lacking BT-11 occurred by topical application to the shaved area. Mice were scored for erythema, scaling and skin thickness, summarized into a composite psoriasis area and severity index (PASI) score on a scale from 0 to 12, on day 7.

The subject of assay [4] is splenic CD3+CD4+ T cells and CD45+ cells. Put plainly: Flow cytometry of spleen cells from the IMQ-induced psoriasis model. Type of assay: in vivo, mice. The settings on record: topical BT-11 vs DMSO control. On the procedure:
as §1
Analysis. Spleens were excised and crushed by microscope slides. Red blood cells were hypotonically lysed from the resultant suspension. Samples were filtered, washed and centrifuged prior to staining. Production of TNF, IL-17, and IL-21 were quantified from CD3+CD4+ T cells and IL6 from CD45+ by flow cytometry.

`O=C(c1cccc(-c2nc3ccccc3[nH]2)n1)N1CCN(C(=O)c2cccc(-c3nc4ccccc4[nH]3)n2)CC1` [BT-11, piperazine-1,4-diylbis((6-(1H-benzo[d]imidazo-2-yl)pyridine-2-yl)methanone)]: the “cervical lymph node proportion of IFNγ-positive CD4+ T cells” value in assay [1] (FIG. 2B) was “reduced”. In addition, in assay [1] (FIG. 2C), the “cervical lymph node proportion of IL-4-positive CD4+ T cells” value is listed as “reduced”. Moreover, the “cervical lymph node proportion of IL-5-positive CD4+ T cells” value in assay [1] (FIG. 2D) was “reduced”. For the same molecule, in assay [2], the “disease activity subscores (erythema, scaling, skin thickness)” value is reported as “reductions in each subscore”. In addition, in assay [2] (through day 19, FIG. 2A), the “reduction of severity of disease (composite disease activity index score)” value is recorded as “approximately 70%”. Besides, the “PASI subscores (erythema, scaling, skin thickness)” value in assay [3] is “reductions in each subscore”. Moreover, the “splenic proportion of TNF-positive CD4+ T cells” value in assay [4] (FIG. 1B) is “reduced”. Also, the “splenic proportion of IL-17-positive CD4+ T cells” value in assay [4] (FIG. 1C) is “reduced”. Besides, the “splenic proportion of IL-21-positive CD4+ T cells” value in assay [4] (FIG. 1D) was “reduced”. Further, the “splenic proportion of IL-6+ cells within all CD45+ immune cells” value in assay [4] (FIG. 1E) is on record as “reduction”.
